Key:
[1] = system: HUVEC endothelial cells; test: Tube formation assay, HUVEC; assay type: cell-based; conditions: HUVEC on Matrigel, 3 hours
Description: Plates (48 wells) were coated with 150 μl of Matrigel and incubated at 37° C. for 1 hour to promote gelling. Svec4-10 or HUVEC cells (40,000 cells) in 0.5 ml of serum-free DMEM with varying concentration of AS101 or SAS were added to each well. For positive control, ECGS was added at a concentration of 50 μg/ml. All samples were performed in sextuplicate. After 3 hours incubation, the plates were fixed with methanol and stained with crystal violet. Randomly chosen fields were photographed and density of tube formation was analyzed by imageJ.

[2] = system: B16F10 melanoma cells; test: Tumor growth in vivo on CAM; design: species or system murine; conditions: 5 μg daily, 7 days
Description: B16F10 melanoma cells (10^6 cells/[…]) in Matrigel were added directly onto the CAM of the 7-days-old embryo (embryos were prepared as described hereinabove). AS101 and SAS (5 μg) were added daily. After a 7-days incubation, with treatment performed each day (PBS, AS101 or SAS), tumors were excised and weighed. Formalin-fixed tumor tissues were paraffin embedded, sectioned at 10 μm, and stained with hematoxylin and eosin (H&E) for examination of tumor cell proliferation and vessel density.

[3] = molecular target: T1, αVβ3 integrin (Homo sapiens, UniProt P05106+P06756); test: ELISA-integrin; assay type: binding; conditions: 0.5-10 μg/ml
T1 construct: purchased Chemicon
T1 sequence (P06756 31-889 limits assumed): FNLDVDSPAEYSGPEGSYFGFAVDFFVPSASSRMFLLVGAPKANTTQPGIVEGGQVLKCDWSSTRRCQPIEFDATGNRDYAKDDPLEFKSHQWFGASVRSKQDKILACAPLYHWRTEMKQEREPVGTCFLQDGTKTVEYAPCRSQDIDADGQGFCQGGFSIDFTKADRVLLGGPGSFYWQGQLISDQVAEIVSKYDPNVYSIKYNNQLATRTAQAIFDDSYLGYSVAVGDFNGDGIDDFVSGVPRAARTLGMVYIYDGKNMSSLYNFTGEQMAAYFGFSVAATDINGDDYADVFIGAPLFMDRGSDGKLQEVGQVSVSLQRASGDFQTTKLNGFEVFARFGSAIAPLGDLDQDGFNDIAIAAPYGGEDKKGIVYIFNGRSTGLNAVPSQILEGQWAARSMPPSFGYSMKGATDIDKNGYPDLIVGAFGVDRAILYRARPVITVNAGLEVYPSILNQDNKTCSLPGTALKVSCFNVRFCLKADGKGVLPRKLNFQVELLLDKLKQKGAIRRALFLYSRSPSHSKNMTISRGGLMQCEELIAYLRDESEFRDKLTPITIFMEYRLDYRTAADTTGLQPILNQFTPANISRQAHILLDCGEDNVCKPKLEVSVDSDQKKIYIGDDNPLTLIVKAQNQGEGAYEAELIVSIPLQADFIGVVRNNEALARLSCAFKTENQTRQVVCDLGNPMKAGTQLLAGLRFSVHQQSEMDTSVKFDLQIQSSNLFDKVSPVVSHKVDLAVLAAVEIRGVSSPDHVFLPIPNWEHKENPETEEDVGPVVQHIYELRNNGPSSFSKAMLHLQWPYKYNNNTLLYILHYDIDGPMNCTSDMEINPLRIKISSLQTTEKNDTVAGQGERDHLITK
T1 sequence (P06756 891-1048 limits assumed): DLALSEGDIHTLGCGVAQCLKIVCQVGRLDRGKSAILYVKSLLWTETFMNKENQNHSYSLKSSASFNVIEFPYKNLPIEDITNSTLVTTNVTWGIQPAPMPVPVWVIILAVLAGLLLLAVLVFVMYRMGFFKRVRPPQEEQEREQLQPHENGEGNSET
T1 sequence (P05106 27-788): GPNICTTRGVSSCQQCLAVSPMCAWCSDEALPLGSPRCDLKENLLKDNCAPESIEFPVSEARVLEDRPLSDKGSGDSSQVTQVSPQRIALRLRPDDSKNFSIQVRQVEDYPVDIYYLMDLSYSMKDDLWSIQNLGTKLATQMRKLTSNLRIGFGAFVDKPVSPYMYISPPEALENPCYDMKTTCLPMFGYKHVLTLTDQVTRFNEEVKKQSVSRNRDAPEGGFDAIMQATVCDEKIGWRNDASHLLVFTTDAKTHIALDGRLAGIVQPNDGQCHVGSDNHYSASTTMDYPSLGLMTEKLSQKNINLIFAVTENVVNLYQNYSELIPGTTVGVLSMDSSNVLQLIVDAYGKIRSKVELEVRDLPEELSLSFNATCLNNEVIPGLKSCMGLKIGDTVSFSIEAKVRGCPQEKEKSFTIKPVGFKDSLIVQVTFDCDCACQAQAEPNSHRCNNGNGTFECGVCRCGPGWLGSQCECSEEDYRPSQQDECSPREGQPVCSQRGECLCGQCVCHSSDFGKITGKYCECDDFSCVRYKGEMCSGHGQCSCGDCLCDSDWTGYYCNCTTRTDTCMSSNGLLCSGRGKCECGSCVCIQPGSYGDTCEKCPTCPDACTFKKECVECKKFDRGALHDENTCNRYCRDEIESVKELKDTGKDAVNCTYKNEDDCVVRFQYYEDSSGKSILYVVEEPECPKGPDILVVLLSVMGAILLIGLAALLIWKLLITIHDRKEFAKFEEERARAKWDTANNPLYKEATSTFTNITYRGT
Description: Plates coated with C16 or fibronectin were blocked with 10% BSA for 1 hour and washed with PBS. 20 ng/well of integrin with or without AS101/SAS was applied on fibronectin or 2 ng C16 coated well and incubated for 1.5 hours at 37° C. The wells were thereafter washed with PBS-T and mouse anti-integrin was added thereto for 1 hour at 37° C. Cells were then washed again and anti-mouse-horseradish peroxidase was added for another 1 hour at 37° C. Finally, cells were washed, TBM-substrate was added for color development, and absorption was read at 595 nm. Data presented as ±SE, bar *=p<0.005, evaluated by T-test.

[4] = system: B16F10 cells; test: Cell attachment assay, B16F10; assay type: cell-based, murine; conditions: B16F10, data not shown, compared with SVEC4-10
Description: The cell attachment assays were performed in sextuplicate in 96-well plates. The 1 μg of C16 or AG73 peptide in 60 μl double-distilled water was added to each well, and this volume was allowed to air dry overnight in a biosafety hood at room temperature (or fibronectin 20 ng/80 μl for 1 hour at 37° C.). Thereafter, nonspecific binding sites of the tissue culture plastic were blocked by adding 200 μl of 1% bovine serum albumin (BSA) in PBS for 1 hour at 37° C. LAN-1, B16F10 and SVEC4-10 cells were harvested by agitation, washed three times in serum-free DMEM and resuspended in 1% BSA-DMEM. After 20 minutes incubation in 1% BSA in a tube, cells were washed and resuspended in 0.1% BSA. The cells were counted using a hemocytometer and brought to a final cell count of 1×10^6/ml in the 0.1% BSA medium. […]
Next, 150 μl of the treated cell suspension was added to each well (20,000 cells/well), which had been coated with peptides, and incubated for 50 minutes at 37° C. […] 100 μl aliquot of 10% SDS was thereafter added to each well for cell lysis and dye release and absorption was read with a TECAN spectrophotometer at 570 nm.
Attached cells were washed with PBS without Ca^+2/Mg^+2. […] Dye bound to the cell is released by SDS and the absorption by the dye is measured by colorimetry at 570 nm. The amount of stained cells is then considered to be proportional to the measured absorption by the dye

[5] = system: SVEC4-10 cells; test: "Scratch" wound closure assay; assay type: cell-based, murine; conditions: 1 μg/ml, ECGS 100 μg/ml, cells counted at 12 hours
Description: Confluent Svec4-10 monolayers in 6 mm plates were “scratch” wounded using the tip of a universal blue pipette tip and rinsed with PBS. AS101 or SAS (1 μg/ml final concentration) or ECGS (100 μg/ml) were added to the plates containing serum-free DMEM. The plates were incubated at 37° C. and fixed and stained at several time points. Migrated cells at 12 hours were counted along the scratch. The centers of plates at all times were photographed for presented data. The experiment was repeated three times.

[6] = system: C57B1/6N female mice; test: Mouse plug in vivo migration and angiogenesis assay; conditions: 20 μg/mouse s.c. daily, 10 days, ECGS 500 μg/ml in Matrigel
Description: Matrigel was mixed with ECGS (500 μg/ml) and injected subcutaneously into C57B1/6N female mice on the ventral surface of the animal. During 10 days, every day, AS101 or SAS (20 μg/mouse in Matrigel) were injected subcutaneously. After 10 days, the plugs were removed with some surrounding tissue, fixed in 10% formalin, and paraffin-embedded. Sections were deparaffinized, and stained with hematoxylin and eosin dyes. In the most positive regions, stained cells were counted by a blinded observer. In each treatment group there were 5-6 mice, and the experiment was performed twice. Images from the sections were captured using a 10× objective of an Olympus microscope.

[7] = system: SVEC4-10 cells; test: Cell attachment assay, SVEC4-10; assay type: cell-based, murine
Description: The cell attachment assays were performed in sextuplicate in 96-well plates. The 1 μg of C16 or AG73 peptide in 60 μl double-distilled water was added to each well, and this volume was allowed to air dry overnight in a biosafety hood at room temperature (or fibronectin 20 ng/80 μl for 1 hour at 37° C.). Thereafter, nonspecific binding sites of the tissue culture plastic were blocked by adding 200 μl of 1% bovine serum albumin (BSA) in PBS for 1 hour at 37° C. LAN-1, B16F10 and SVEC4-10 cells were harvested by agitation, washed three times in serum-free DMEM and resuspended in 1% BSA-DMEM. After 20 minutes incubation in 1% BSA in a tube, cells were washed and resuspended in 0.1% BSA. The cells were counted using a hemocytometer and brought to a final cell count of 1×10^6/ml in the 0.1% BSA medium. Cells were divided into tubes and each tube was treated with one of the following in DMEM: ECGS (endothelial cell growth supplement) (50 μg/ml), AS101 (1-5 μg/ml), SAS (1-5 μg/ml), ECGS (50 μg/ml)+SAS (1-5 μg/ml), ECGS (50 μg/ml)+AS101 (1-5 μg/ml), 10% serum, 10% serum+AS101 (1-5 μg/ml) or 10% serum+SAS (1-5 μg/ml).
Next, 150 μl of the treated cell suspension was added to each well (20,000 cells/well), which had been coated with peptides, and incubated for 50 minutes at 37° C. After 50 minutes, the unattached cells were removed by aspiration and the remaining attached cells were fixed and stained by crystal violet. 100 μl aliquot of 10% SDS was thereafter added to each well for cell lysis and dye release and absorption was read with a TECAN spectrophotometer at 570 nm.
Attached cells were washed with PBS without Ca^+2/Mg^+2. 100 μl of 0.2% crystal violet in 20% methanol was thereafter added and the cells were incubated for 10 minutes at room temperature. At the end of incubation time, cells were washed twice with double-distilled water and 100 μl of 10% SDS was added. Dye bound to the cell is released by SDS and the absorption by the dye is measured by colorimetry at 570 nm. The amount of stained cells is then considered to be proportional to the measured absorption by the dye

[8] = system: FAK; test: Western blot analysis of FAK phosphorylation; assay type: cell-based, murine
Description: Cell lysates (20 μg) were diluted with an equal volume of 2×SDS (sodium dodecyl sulfate) sample buffer and separated according to size by SDS-PAGE (SDS-polyacrylamide gel electrophoresis). Proteins were transferred to a polyvinylidene difluoride membrane via electroelution by a transfer system (Bio-Rad), blocked for 1 hour by blocking buffer (5% skim milk in PBS with 0.05% Tween 20) and incubated for 2 hours in room temperature or for overnight in 4° C. with primary antibodies diluted in blocking buffer. Membranes were washed several times in PBS with 0.05 Tween (PBS-T) and incubated for 1 hour with horseradish peroxidase-conjugated anti-mouse or anti-rabbit antibodies (diluted 1:10,000). Proteins were detected by ECL Western Blotting Detection Reagents according to the instructions of the manufacturer (PIERCE).

[9] = B16F10, 5 to 10 minutes incubation
[10] = LAN-1, 5 to 10 minutes incubation
[11] = SVEC4-10, 5 to 10 minutes incubation

| Structure (SMILES) | number of tubes formed [1] | tumor growth and weight on chorioallantoic membrane [2] | C16 peptide binding to αVβ3 integrin [3] | fibronectin binding to αVβ3 integrin [3] | cell attachment to C16 and AG73 peptides [4] | ECGS-induced scratch wound repair by cell migration [5] | endothelial cell invasion and migration into Matrigel plug (angiogenesis) [6] | cell attachment to AG73 peptide [7] | cell attachment to C16 peptide [7] | cell attachment to fibronectin [7] | ECGS-induced FAK phosphorylation at Y397 [8, 9] | ECGS-induced FAK phosphorylation at Y397 [8, 10] | ECGS-induced FAK phosphorylation at Y397 [8, 11] |
| --- | --- | --- | --- | --- | --- | --- | --- | --- | --- | --- | --- | --- | --- |
| Cl[TeH]1(Cl)(Cl)OCCO1 [AS101, ammonium trichloro(dioxyethylene-O,O′)tellurate] | reduced the number of tubes formed | reduced tumor growth and weight | block | block | similar | reduce ECGS-induced scratch wound repair | inhibit endothelial cell invasion and migration | slightly decrease | slightly decrease | inhibited cell attachment to fibronectin | inhibition of ECGS-induced FAK phosphorylation at Y397 | inhibition of ECGS-induced FAK phosphorylation at Y397 | inhibition of ECGS-induced FAK phosphorylation at Y397 |
| O=C1O[Te]23OC(=O)C(O2)C2O[Te]4(OC(=O)C(O4)C1O3)OC2=O [SAS, [TeO4(COCH)2]2] | reduced the number of tubes formed | reduced tumor growth and weight | block | block | similar | reduce ECGS-induced scratch wound repair | inhibit endothelial cell invasion and migration | slightly decrease | slightly decrease | inhibited cell attachment to fibronectin | inhibition of ECGS-induced FAK phosphorylation at Y397 | inhibition of ECGS-induced FAK phosphorylation at Y397 | inhibition of ECGS-induced FAK phosphorylation at Y397 |
